Experimental data taken from ChEMBL document CHEMBL1201862, “PubChem BioAssay data set” (2004).
The source made the active and inactive calls.

Key:
[1] = target: T1, Endoribonuclease toxin MazF (Escherichia coli K-12, UniProt P0AE70); assay: MazF toxin RNase activators, dose response, biochemical, fluorescence, single-stranded RNA substrate, uHTS hits (AID 588481); assay type: functional
T1 sequence (P0AE70 whole entry): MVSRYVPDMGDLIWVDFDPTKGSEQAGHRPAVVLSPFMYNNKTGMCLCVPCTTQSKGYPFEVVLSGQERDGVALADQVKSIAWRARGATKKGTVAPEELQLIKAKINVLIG

[2] = target: T1, Endoribonuclease toxin MazF; assay: fluorescent RNA oligo signal without MazF, dose response, counter-screen for MazEF activator project, biochemical, fluorescence, single-stranded RNase substrate (AID 588502); assay type: functional
[3] = target: Long-chain-fatty-acid--AMP ligase FadD28 (Mycobacterium tuberculosis, UniProt P9WQ59); assay: Fluorescence polarization aasay to screen for inhibitors that compete for the binding of FadD28 to a bisubstrate Measured in Biochemical System Using Plate Reader - 2147-01_Inhibitor_Dose_CherryPick_Activity.; assay type: functional, Mycobacterium tuberculosis H37Rv
Sequence of Long-chain-fatty-acid--AMP ligase FadD28 (P9WQ59 whole entry): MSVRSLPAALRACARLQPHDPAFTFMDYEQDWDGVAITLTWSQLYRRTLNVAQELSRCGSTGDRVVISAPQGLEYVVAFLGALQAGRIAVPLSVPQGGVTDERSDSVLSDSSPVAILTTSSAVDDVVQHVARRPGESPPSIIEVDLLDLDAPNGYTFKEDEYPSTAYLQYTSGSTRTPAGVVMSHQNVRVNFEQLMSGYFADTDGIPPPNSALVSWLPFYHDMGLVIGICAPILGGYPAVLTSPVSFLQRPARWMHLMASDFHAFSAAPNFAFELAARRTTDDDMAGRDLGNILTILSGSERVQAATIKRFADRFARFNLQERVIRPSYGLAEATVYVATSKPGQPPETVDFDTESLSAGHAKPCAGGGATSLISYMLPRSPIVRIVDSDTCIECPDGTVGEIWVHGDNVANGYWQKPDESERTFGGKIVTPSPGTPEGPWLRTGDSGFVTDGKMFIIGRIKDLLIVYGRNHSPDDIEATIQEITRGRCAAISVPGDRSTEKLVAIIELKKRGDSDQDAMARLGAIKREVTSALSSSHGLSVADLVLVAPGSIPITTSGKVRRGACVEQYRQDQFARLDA

[4] = target: 26S proteasome non-ATPase regulatory subunit 14 (Homo sapiens, UniProt O00487); assay: inhibition of proteasome subunit RPN11 – biochemical, fluorescence polarization, uHTS hits, confirmation (AID 602368); assay type: functional
Sequence of 26S proteasome non-ATPase regulatory subunit 14 (O00487 whole entry): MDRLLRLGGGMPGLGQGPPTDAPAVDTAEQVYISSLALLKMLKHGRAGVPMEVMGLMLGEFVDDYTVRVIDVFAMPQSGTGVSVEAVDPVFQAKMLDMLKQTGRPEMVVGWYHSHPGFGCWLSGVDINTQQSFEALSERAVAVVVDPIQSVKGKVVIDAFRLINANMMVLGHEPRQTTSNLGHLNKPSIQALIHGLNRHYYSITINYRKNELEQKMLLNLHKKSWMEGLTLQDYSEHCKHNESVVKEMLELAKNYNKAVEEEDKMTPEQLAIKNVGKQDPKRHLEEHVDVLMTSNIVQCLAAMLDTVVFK

[5] = target: 72 kDa type IV collagenase (Homo sapiens, UniProt P08253); assay: Dose Response validation of uHTS RPN11 inhibitor hits using a MMP-2 Fluorescence assay.; assay type: functional
Sequence of 72 kDa type IV collagenase (P08253 whole entry): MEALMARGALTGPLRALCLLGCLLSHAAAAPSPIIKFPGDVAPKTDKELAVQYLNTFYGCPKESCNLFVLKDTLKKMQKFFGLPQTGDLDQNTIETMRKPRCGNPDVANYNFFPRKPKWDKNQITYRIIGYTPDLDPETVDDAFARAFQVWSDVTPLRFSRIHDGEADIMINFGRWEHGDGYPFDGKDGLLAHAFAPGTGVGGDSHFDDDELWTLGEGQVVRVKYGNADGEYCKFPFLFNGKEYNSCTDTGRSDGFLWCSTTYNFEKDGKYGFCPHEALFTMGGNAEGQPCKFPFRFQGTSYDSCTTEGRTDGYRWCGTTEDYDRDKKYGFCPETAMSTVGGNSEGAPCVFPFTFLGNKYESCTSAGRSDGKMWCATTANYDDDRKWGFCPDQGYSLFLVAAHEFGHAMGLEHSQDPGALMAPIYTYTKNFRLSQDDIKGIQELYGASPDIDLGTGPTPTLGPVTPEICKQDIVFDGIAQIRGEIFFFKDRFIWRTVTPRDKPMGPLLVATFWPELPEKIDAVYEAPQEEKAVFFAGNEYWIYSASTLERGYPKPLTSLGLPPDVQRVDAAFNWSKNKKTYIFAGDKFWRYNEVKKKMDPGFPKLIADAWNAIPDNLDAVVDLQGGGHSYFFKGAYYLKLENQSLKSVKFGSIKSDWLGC

Prothrombin = Prothrombin (Bos taurus, UniProt P00735); assay: thrombin inhibition, dose response, biochemical, fluorescence polarization, uHTS hits (AID 602369); assay type: functional
Melanocortin receptor 4 [6] = target: T2, Melanocortin receptor 4 (Homo sapiens, UniProt P32245); assay type: functional, cell-based;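 further: Cell-based assay with luminescence read-out, confirmatory dose-response testing for agonist activity of biased ligands at MC4R; human U2OS cells with tagged receptor and beta-arrestin; potency of agonists that increase receptor coupling to beta-arrestin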
T2 sequence (P32245 whole entry): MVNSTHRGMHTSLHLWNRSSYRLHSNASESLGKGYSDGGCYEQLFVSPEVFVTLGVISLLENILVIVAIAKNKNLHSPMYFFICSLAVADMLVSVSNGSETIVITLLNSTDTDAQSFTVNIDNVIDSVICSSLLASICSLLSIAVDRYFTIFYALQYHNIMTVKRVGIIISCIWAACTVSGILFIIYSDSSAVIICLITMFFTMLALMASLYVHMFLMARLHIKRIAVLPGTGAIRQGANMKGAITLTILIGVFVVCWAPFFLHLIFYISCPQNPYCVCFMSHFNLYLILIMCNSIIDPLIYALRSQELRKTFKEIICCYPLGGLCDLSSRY

[7] = inhibitors of intracellular T. cruzi replication, confirmation, NIH3T3 host cells, beta-gal luminescence (AID 2044); assay type: functional, cell-based;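 further: intracellular parasites grown in NIH/3T3 mouse fibroblasts as host cells; luminescent beta-galactosidase reporter signal from transgenic T. cruzi replicating inside host cells; inhibitors lower the luminescence signal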
[8] = cytotoxicity toward NIH3T3 fibroblasts, dose response, counter-screen, cell-based, ATP luminescence, mouse fibroblasts (AID 2010); assay type: functional;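 further: cells exposed to compound for about 90 hours before reading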
[9] = Shn3 3'UTR reporter inhibitors, dose response, cell-based, Clone20 osteoblasts, firefly luciferase, cherry-picked (AID 624132); assay type: functional;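 further: firefly luciferase luminescence from reporter carrying the Shn3 3'UTR in osteoblasts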
[10] = HepG2 cell cytotoxicity, dose response, cytotoxicity control for Shn3 inhibitor project, CellTiter-Glo, cherry-picked (AID 624134); assay type: functional, cell-based
[11] = control 3'UTR Renilla luciferase suppression, dose response, counter-screen for Shn3 inhibitor project, cell-based, Clone20-Shn3RL, cherry-picked (AID 624133); assay type: functional
Protein Wnt-3a = Protein Wnt-3a (Mus musculus, UniProt P27467); assay: Wnt3a-driven reporter signaling inhibition, dose response, selectivity assay for Gli-SUFU antagonist project, Wnt-LIGHT cells, luminescence (AID 651570); assay type: functional; conditions: read-out: IC50_Mean;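 further: Wnt-LIGHT reporter cells stimulated with conditioned medium from Wnt3a-producing cells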
Sequence of Protein Wnt-3a (P27467 whole entry, the tested form may be a part): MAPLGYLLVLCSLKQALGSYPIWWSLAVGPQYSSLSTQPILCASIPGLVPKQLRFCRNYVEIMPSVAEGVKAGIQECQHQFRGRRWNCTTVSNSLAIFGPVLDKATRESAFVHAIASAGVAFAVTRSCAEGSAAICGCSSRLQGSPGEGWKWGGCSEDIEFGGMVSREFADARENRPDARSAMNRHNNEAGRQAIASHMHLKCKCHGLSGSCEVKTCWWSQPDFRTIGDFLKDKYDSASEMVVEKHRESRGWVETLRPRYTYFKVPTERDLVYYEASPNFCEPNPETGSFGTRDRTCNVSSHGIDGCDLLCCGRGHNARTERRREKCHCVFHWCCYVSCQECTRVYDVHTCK

[12] = target: T3, Carboxy-terminal domain RNA polymerase II polypeptide A small phosphatase 1 (Homo sapiens, UniProt Q9GZU7); assay: inhibitors of CTDSP1, concentration-response testing, biochemical assay, absorbance-based, actives from ultra-high-throughput screening (AID 540297); assay type: functional
T3 sequence (Q9GZU7 whole entry): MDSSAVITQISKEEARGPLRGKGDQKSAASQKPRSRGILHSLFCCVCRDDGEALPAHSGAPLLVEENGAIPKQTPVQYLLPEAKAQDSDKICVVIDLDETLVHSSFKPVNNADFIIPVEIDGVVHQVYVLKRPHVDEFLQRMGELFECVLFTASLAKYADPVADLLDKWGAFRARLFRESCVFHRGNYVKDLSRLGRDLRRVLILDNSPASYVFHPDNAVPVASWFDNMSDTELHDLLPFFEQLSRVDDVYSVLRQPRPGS

Melanocortin receptor 4 [13] = target: T2, Melanocortin receptor 4; assay: MC4R antagonist potency on cAMP, dose response, cell-based, TR-FRET, biased antagonists (AID 602298); assay type: functional;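 further: antagonist potency against agonist-stimulated cAMP production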
[14] = nonselective inhibitors of cellular cAMP signaling, dose response, counter-screen for MC4R biased antagonist project, cell-based, TR-FRET cAMP detection (AID 602305); assay type: functional;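 further: U2OS cells stimulated with forskolin near its EC80 as the cAMP inducer; potency is for inhibition of forskolin-stimulated cAMP signaling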
[15] = intracellular Trypanosoma cruzi inhibitors in host cells – cell-based, plate reader, cherry-pick samples, set 3, dose response (AID 651818); assay type: functional;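 further: compounds incubated with infected cells for about four days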
[16] = target: T4, Sentrin-specific protease 1 (Homo sapiens, UniProt Q9P0U3); assay: potency of human SENP1 inhibitors, dose response, biochemical, kinetic FRET (AID 651697); assay type: functional; conditions: read-out: IC50_Mean
T4 sequence (Q9P0U3 whole entry): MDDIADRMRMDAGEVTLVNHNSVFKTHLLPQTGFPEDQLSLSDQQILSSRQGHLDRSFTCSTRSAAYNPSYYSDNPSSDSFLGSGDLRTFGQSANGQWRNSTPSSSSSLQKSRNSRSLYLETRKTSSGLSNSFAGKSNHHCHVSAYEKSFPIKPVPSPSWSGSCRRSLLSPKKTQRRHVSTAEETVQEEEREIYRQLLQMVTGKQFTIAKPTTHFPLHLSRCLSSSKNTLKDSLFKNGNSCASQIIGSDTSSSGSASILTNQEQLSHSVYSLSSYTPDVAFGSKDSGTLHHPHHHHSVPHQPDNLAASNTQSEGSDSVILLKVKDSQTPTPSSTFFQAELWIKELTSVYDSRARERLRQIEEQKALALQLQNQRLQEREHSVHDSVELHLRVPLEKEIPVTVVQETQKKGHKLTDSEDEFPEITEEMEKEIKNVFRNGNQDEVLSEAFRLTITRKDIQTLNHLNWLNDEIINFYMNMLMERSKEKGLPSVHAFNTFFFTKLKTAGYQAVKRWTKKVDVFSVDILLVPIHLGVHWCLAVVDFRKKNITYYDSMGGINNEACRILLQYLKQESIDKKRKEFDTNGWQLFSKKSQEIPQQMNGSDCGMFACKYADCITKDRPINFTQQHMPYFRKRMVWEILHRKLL

[17] = target: T4, Sentrin-specific protease 1; assay: Dose response confirmation of small molecule inhibitors of the catalytic domain of the SUMO protease, SENP1 in a FRET assay.; assay type: functional; conditions: read-out: IC50_Mean
[18] = target: T5, Mitochondrial peptide methionine sulfoxide reductase (Bos taurus, UniProt P54149); assay type: functional;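 further: absorbance read-out, biochemical high-throughput dose-response screen for MsrA inhibitors, confirmatory; recombinant bovine MsrA coupled to E. coli TrxB with NADPH and selenocystamine; potency is for inhibitors of MsrA activity on DMSO substrate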
T5 sequence (P54149 whole entry): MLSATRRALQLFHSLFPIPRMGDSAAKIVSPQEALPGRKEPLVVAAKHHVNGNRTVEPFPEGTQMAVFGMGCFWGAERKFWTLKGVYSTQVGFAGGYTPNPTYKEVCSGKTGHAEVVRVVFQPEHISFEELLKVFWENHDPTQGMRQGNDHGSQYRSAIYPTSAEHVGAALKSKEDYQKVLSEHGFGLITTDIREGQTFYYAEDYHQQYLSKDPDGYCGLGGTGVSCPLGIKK

Nc1cc(SCc2ccc(Cl)cc2Cl)ncn1
EC50 [1]: > 99 µM (inactive)
EC50 [2]: > 99 µM (inactive)

Cn1c(=O)c2cc(NC(=S)NC3CCCCC3)ccc2n1C/C=C/c1ccccc1
AC50 [3]: > 100 µM (inactive)

COc1ccc(Nc2nc3ccc(C)cc3cc2C#N)c(OC)c1
EC50 [1]: 34.1 µM (inactive)
EC50 [2]: 14.2 µM (active)

COc1ccccc1Cc1c(-c2cccc(Br)c2)nc2ccc(Cl)cn12
IC50 [4]: 8.48 µM (active)
IC50 [5]: > 100 µM (inactive)
IC50 (Prothrombin): 13 µM (active)

O=C1OC(c2ccccc2)(c2ccc(O)cc2)c2ccccc21 (configuration not stated)
EC50 (Melanocortin receptor 4 [6]): > 89.2 µM (inactive)

CCn1/c(=N\C(=O)CS(=O)(=O)c2ccccc2)sc2cccc(OC)c21
EC50 [7]: 1.74 µM (active)
EC50 [8]: > 60 µM (not active)
AC50 [9]: 1.68 µM (active)
AC50 [10]: > 70 µM (inactive)
AC50 [11]: 1.58 µM (active)
IC50 (Protein Wnt-3a): 1.03 µM (active)

C=CCn1/c(=N/C(=O)c2sc3ccccc3c2Cl)sc2cc(S(N)(=O)=O)ccc21
IC50 [12]: 4.39 µM (active)
IC50 (Melanocortin receptor 4 [13]): 30.7 µM (inactive)
IC50 [4]: 12.5 µM (active)
IC50 [5]: > 100 µM (inactive)
IC50 [14]: > 64.6 µM (inactive)
IC50 (Prothrombin): > 100 µM (inactive)

Cc1cc(O)cc(O)c1/C=N/Cc1ccco1
EC50 [1]: > 99 µM (inactive)
EC50 [2]: 21.9 µM (inactive)

CC(C)NC(=O)Nc1cccc2c1O[C@H](CN(C)Cc1ccc(C(=O)Nc3ccccc3N)cc1)[C@H](C)CN([C@@H](C)CO)C2=O
AC50 [15]: 2.95 µM (active)

CC(=O)Nc1cc(-c2ccc(N3CCN(C)CC3)cc2)cn2c(-c3ccccc3)cnc12
IC50 [16]: 24.1 µM (inactive)
IC50 [17]: 12.2 µM (active)

C/C(CC(C)C)=N/Nc1ccc([N+](=O)[O-])cc1[N+](=O)[O-]
IC50 [18]: 155 µM (inactive)
